The record followed here is PMC10958501, “4-Oxypiperidine Ethers as Multiple Targeting Ligands at Histamine H3 Receptors and Cholinesterases” (ACS Chemical Neuroscience, 2024).

SMILES strings stand for the structures.

In assay [1] the target is eqBuChE (Equus caballus, UniProt P81908). The assay is described as follows: biochemical.
Assay [2] concerns the target T1, eeAChE (Electrophorus electricus, UniProt O42275).
T1 construct: purchased Sigma–Aldrich (Steinheim, Germany)
The assay is described as follows: biochemical.

Assay [3] concerns the target T2, gpH3R (Cavia porcellus, UniProt Q9JI35).
T2 construct: isolated guinea pig ileum electrically stimulated to contraction; from tissue; host or cells: distal ileum of male guinea pigs
Kind of assay: Ex vivo gpH3R screening on isolated guinea pig ileum electrically stimulated to contraction. As for the experimental part:
All newly synthesized compounds were evaluated ex vivo as H3R antagonists/inverse agonists on guinea pig ileum (gpH3R) stimulated electrically for contraction.[47]
The compounds were tested against H3R by an ex vivo assay using isolated guinea pig ileum electrically stimulated to contraction, according to Vollinga et al.[47] The pA2-values were calculated according to Arunlakshana and Schild.[59] The radioligand-displacement assay was performed in membrane fractions of HEK-293 cells stably expressing hH3R. Cell cultivation and membrane preparation were performed according to Kottke et al.[48] The Ki values were calculated from the IC50 values using the Cheng–Prusoff equation.[60] The statistical calculations were performed on −log(Ki). […] The inhibitory activities toward AChE and BuChE of novel ADS compounds were assessed in a spectrophotometric Ellman’s assay using electric eel AChE (eeAChE) and equine BuChE (eqBuChE).[57] Intracellular cAMP accumulation was measured with a homogeneous TR-FRET immunoassay using the LANCE Ultra cAMP kit (PerkinElmer) and HEK293 cells stably expressing the human histamine H3 receptor.[61] A more detailed description of the biological methods is presented in the Supporting Information.
3. Pharmacological assay results.
3.1. Ex vivo assay for histamine H 3R receptor antagonists on guinea pig ileum.
Male guinea pigs, weighing 300-400 g were euthanized by a blow to the neck. Following this, a 20-30 cm length of the distal ileum, apart from the terminal 5 cm was rapidly removed and […]
USA) (1·10 -6 mol/L). The intraluminal content was rinsed and the isolated intestine was cut into 1.5-2 cm segments. The preparations were mounted between two platinum electrodes […]
and indomethacin (3·10 -7 mol/L).
CO2 mixture and maintained at 37 °C under a constant load of 1.0 g (Hugo Sachs Hebel-Messvorsatz (Tl-2)/HF-modem; Hugo Sachs Elektronik, Hugstetten, Germany) connected to a pen recorder (Kipp & Zonen BD41, Delft, Holland). During an equilibration period of 60 min, the Krebs buffer was changed every 10 min. The preparations were then continuously stimulated at 15-20 V at a frequency of 0.1 Hz for a duration of 0.5 ms, with rectangular-wave electrical pulses (Grass Stimulator S-88; Grass Instruments Co., Quincy, Massachusetts, […]
USA). […] Five minutes before (R)-(−)-α- […]
methylhistamine (RAMH) (Toronto Research Chemicals Inc., North York, Canada), administration, pyrilamine (Sigma-Aldrich, St. Louis, MO, USA) (1·10-5 mol/L concentration in organ bath) was added. The first cumulative concentration-response curve was determined […]
second to fourth curve was measured against increasing antagonist concentration (incubation time 20 min). The pA2-values were calculated according to Arunlakshana and Schild 5.
Statistical analysis was carried out with the Student’s t-test. In all tests, a p<0.05 was […]
considered statistically significant. The pA2 values were compared with the affinity of thioperamide (Sigma-Aldrich, St. Louis, MO, USA). […]

In assay [4] the target is T3, human histamine H3 receptor (Homo sapiens, UniProt Q9Y5N1).
T3 construct: expressed in transfected cells
The assay is described as follows: H3R intrinsic activity, cAMP accumulation assay in HEK293 cells. In kind it is cell-based. As for the experimental part:
For the lead compound ADS031, intrinsic activity at H3R was tested in HEK293 cells expressing recombinant human receptors using a cAMP accumulation assay. […] […].
The compounds were tested against H3R by an ex vivo assay using isolated guinea pig ileum electrically stimulated to contraction, according to Vollinga et al.[47] The pA2-values were calculated according to Arunlakshana and Schild.[59] The radioligand-displacement assay was performed in membrane fractions of HEK-293 cells stably expressing hH3R. Cell cultivation and membrane preparation were performed according to Kottke et al.[48] The Ki values were calculated from the IC50 values using the Cheng–Prusoff equation.[60] The statistical calculations were performed on −log(Ki). The mean values and 95% confidence intervals were transformed to nanomolar concentrations. The inhibitory activities toward AChE and BuChE of novel ADS compounds were assessed in a spectrophotometric Ellman’s assay using electric eel AChE (eeAChE) and equine BuChE (eqBuChE).[57] Intracellular cAMP accumulation was measured with a homogeneous TR-FRET immunoassay using the LANCE Ultra cAMP kit (PerkinElmer) and HEK293 cells stably expressing the human histamine H3 receptor.[61] A more detailed description of the biological methods is presented in the Supporting Information.
3.4. H3R intrinsic activity.
Intracellular cAMP accumulation was measured with homogenous TR-FRET immunoassay, using LANCE Ultra cAMP kit (PerkinElmer) and HEK293 cells, stably expressing human histamine H3 receptor. An antagonist dose-response experiments were performed in a total assay volume of 20 μl in white 384-well plates, using 750 cells/well. […] TR-FRET signal was read on Spark microplate reader (Tecan Life Sciences). Measured TR-FRET, which was inversely proportional to cAMP quantities in the sample, was then normalized and presented as % of maximal cAMP accumulation in the assay determined for the forskolin alone-stimulated cells. […]

T3 sequence (Q9Y5N1 whole entry): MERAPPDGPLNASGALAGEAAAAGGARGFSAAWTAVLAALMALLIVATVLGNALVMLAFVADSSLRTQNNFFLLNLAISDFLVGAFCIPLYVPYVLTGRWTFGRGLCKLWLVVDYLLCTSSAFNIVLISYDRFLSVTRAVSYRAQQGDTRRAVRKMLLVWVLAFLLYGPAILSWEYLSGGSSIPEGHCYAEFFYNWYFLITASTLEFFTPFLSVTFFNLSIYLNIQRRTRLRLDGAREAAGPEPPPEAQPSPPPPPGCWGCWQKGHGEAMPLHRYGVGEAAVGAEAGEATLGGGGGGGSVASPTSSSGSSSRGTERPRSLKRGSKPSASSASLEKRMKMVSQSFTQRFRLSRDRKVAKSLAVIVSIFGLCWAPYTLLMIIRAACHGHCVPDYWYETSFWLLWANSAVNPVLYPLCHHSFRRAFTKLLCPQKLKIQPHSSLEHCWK
Chain of eqBuChE (P81908 whole entry): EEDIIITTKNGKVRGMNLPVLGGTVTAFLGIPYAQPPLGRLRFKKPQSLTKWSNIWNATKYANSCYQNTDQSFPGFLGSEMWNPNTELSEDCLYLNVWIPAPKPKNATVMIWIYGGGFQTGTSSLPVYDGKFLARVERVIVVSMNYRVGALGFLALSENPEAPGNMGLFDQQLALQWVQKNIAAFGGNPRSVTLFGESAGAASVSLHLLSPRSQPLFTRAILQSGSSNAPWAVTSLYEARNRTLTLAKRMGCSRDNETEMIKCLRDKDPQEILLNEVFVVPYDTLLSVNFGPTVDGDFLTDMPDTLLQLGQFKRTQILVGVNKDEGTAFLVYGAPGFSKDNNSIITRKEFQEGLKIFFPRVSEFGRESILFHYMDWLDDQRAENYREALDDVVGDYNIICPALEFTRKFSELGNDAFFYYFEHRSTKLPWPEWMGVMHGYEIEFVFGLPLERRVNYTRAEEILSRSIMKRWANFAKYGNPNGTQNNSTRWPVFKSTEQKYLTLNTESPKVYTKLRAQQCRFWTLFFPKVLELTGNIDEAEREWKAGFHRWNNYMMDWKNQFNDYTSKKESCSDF
T1 sequence (O42275 24-633): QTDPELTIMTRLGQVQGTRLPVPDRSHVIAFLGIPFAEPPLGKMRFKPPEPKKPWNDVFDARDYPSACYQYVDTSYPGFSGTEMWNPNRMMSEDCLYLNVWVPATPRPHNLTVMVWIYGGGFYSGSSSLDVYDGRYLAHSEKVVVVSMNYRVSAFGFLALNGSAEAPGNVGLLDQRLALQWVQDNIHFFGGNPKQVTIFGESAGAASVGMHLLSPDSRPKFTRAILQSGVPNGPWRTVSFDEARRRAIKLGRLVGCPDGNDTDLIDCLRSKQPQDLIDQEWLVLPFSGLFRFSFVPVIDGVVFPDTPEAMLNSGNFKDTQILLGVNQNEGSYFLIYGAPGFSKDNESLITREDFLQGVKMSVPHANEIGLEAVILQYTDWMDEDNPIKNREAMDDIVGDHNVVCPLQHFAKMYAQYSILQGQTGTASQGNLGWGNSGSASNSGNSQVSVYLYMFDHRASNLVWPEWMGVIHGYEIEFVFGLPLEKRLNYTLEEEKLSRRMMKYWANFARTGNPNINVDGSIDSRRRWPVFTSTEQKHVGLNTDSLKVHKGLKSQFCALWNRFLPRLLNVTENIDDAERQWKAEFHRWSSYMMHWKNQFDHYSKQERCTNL
T2 sequence (Q9JI35 whole entry): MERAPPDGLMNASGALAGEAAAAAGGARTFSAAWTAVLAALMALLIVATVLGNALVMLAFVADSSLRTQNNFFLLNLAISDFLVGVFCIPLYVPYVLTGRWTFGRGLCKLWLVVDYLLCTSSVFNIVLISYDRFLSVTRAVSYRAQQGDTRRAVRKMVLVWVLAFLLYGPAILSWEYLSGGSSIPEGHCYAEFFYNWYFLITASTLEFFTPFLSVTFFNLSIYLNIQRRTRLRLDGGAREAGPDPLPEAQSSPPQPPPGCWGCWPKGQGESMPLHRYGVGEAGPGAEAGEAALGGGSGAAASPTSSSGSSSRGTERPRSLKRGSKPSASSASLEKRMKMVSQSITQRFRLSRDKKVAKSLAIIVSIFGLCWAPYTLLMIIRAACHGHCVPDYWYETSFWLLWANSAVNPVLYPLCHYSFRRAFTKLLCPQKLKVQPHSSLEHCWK

In general, IC50 refers to the concentration needed to halve the response being measured. On to `CCCN(C)Cc1ccc2cc(COC3CCN(Cc4ccccc4)CC3)ccc2c1` [ADS031, N-((6-(((1-Benzylpiperidin-4-yl)oxy)methyl)naphthalen-2-yl)methyl)-N-methylpropan-1-amine], for which the values for the inhibition at 10 µM in assay [1] (read-out: eqBuChE % inh. (10 μM) ± SD) and in assay [2] (read-out: eeAChE % inh. (10μM) ± SD) were 93.1 ± 0.4% and 84.2 ± 0.6%, respectively. Besides, the IC50 in assay [1] (read-out: eqBuChE IC50 [μM] ± sem) was determined as 1.35 ± 0.05 µM; in assay [2] (read-out: eeAChE IC50 (μM) ± sem), 1.54 ± 0.038 µM; in assay [4] (against (R)-(−)-α-methylhistamine (30 nM), forskolin-stimulated HEK293 cells, read-out: IC50 in H3R functional assay (cAMP accumulation)), 41.7 ± 8.5 nM. The Kb in assay [3] is 28.8 nM; in assay [4] (Leff-Dougall variant of Cheng-Prusoff equation, read-out: Kb in H3R functional assay (cAMP accumulation)) it was 0.75 ± 0.15 nM. Further, the H3R intrinsic activity result in assay [4] (cAMP accumulation assay) is on record as “H3R antagonist/inverse agonist”.
